Activity calls are given as the source filed them.

The target of experiment [1] is T1, Intestinal-type alkaline phosphatase (Homo sapiens, UniProt P09923). The experiment can be described thus: human intestinal alkaline phosphatase activators, dose response, biochemical, luminescence, uHTS hits (AID 463120). The format is functional.
Experiment [2] deals with T2, Alkaline phosphatase, tissue-nonspecific isozyme (Homo sapiens, UniProt P05186).
T2 sequence (P05186 whole entry): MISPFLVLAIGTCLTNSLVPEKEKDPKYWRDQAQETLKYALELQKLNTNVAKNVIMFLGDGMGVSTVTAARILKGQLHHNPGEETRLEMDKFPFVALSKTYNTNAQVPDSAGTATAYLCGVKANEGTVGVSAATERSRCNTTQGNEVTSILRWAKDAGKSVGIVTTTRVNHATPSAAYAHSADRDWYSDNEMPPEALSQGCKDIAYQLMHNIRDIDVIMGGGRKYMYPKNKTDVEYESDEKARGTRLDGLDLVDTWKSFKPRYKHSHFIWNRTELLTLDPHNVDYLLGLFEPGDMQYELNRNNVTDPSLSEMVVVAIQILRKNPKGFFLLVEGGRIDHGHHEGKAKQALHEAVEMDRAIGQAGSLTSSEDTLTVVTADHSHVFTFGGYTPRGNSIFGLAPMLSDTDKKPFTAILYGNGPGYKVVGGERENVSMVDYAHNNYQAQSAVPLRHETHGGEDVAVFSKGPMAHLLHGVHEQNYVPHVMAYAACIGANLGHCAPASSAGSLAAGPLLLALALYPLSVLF
The experiment can be described thus: TNAP enzyme activators, dose response, selectivity assay for human IAP activator project, biochemical, TNAP isozyme, human IAP uHTS hits (AID 488886).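 Further: potency of compounds raising TNAP activity as a selectivity check on IAP activators.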 Type of experiment: functional.

For experiment [3], the target named is Intestinal-type alkaline phosphatase (Mus musculus, UniProt P24822). The experiment can be described thus: PubChem AID 488874. Type of experiment: functional.
For experiment [4], the target named is T1, Intestinal-type alkaline phosphatase. The experiment can be described thus: human IAP activators, dose response, biochemical, luminescent, uHTS hits, set 2 (AID 488817).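 Further: potency of activators that raise enzyme activity.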 The format is functional.
Experiment [5] concerns the target T2, Alkaline phosphatase, tissue-nonspecific isozyme.
Experiment [6] concerns the target T3, Coagulation factor XII (Homo sapiens, UniProt P00748).
T3 sequence (P00748 whole entry): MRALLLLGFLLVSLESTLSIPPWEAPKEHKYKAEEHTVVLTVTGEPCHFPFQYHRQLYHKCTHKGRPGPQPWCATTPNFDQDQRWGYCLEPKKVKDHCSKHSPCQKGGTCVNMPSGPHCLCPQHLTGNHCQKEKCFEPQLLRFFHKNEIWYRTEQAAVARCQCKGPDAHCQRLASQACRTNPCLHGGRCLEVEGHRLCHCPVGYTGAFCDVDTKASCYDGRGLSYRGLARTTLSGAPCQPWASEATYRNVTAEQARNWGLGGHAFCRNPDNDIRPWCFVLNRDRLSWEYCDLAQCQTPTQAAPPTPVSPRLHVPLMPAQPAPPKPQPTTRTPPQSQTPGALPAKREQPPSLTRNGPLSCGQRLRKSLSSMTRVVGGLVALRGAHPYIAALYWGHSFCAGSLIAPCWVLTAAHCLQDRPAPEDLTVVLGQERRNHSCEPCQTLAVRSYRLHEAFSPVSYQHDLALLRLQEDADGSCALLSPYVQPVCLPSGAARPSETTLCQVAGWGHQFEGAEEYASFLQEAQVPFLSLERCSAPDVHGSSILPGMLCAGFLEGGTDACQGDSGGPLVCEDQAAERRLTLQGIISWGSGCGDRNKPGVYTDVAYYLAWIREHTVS
The experiment can be described thus: FXIIa inhibitor potency, concentration-response, biochemical (AID 716). The format is functional.

The nature of experiment [7]: A549 cell cytotoxicity, dose response, cytotoxicity control, plate reader, cherry-pick, antagonist series (AID 743412). The format is functional, cell-based.
Experiment [8] deals with T4, Neuropeptides B/W receptor type 1 (Homo sapiens, UniProt P48145).
T4 sequence (P48145 whole entry): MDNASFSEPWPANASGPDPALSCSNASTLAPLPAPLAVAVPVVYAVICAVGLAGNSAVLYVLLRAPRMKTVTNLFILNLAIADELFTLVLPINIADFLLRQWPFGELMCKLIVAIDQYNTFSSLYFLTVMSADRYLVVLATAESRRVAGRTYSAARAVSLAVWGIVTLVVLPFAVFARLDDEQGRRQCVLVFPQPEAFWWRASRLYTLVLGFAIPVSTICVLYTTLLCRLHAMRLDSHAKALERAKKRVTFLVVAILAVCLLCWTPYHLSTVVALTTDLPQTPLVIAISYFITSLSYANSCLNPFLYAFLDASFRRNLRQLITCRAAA
The experiment can be described thus: GPR7 antagonist potency, late-stage follow-up, cell-based, fluorescence, dose response (AID 463251). Type of experiment: functional.

For experiment [9], the target named is T5, Melanin-concentrating hormone receptor 1 (Homo sapiens, UniProt Q99705). The experiment can be described thus: Late-stage fluorescence-based counterscreen for antagonists of the G-protein coupled receptor 7 (GPR7): cell-based dose response assay to identify antagonists of the melanin-concentrating hormone receptor 1 (MCHR1). [Related pubchem assays (depositor defined):AID1861, AID1880, AID1952, AID2148, AID2251, AID2257, AID485339]. Type of experiment: functional. For orientation: A counterscreen serves to expose hits that act by an unwanted route or on another target.

In experiment [10] the target is T5, Melanin-concentrating hormone receptor 1. The experiment can be described thus: Fluorescence-based counterscreen for antagonists of the G-protein coupled receptor 7 (GPR7): cell-based high throughput dose response assay to identify antagonists of the melanin-concentrating hormone receptor 1 (MCHR1). The format is functional.
Experiment [11] is described as follows: HEK293 cell cytotoxicity, dose response, cytotoxicity control, plate reader, cherry-picked samples (AID 743446). Type of experiment: functional, cell-based.
Experiment [12] addresses T4, Neuropeptides B/W receptor type 1. The experiment can be described thus: Fluorescence-based dose response cell-based high throughput screening assay to identify antagonists of the G-protein coupled receptor 7 (GPR7). [Related pubchem assays: 1952 (Screening assay (GPR7 antagonists).), 1880 (Summary AID.)]. Type of experiment: functional.
A short description of experiment [13]: HepG2 cell cytotoxicity, dose response, cytotoxicity control, plate reader, cherry-pick, antagonist series (AID 743416). Type of experiment: functional, cell-based.
Experiment [14] addresses T6, Corticotropin-releasing factor receptor 2/Corticotropin-releasing factor-binding protein (Homo sapiens, UniProt P24387+Q13324).
T6 sequence (Q13324 whole entry): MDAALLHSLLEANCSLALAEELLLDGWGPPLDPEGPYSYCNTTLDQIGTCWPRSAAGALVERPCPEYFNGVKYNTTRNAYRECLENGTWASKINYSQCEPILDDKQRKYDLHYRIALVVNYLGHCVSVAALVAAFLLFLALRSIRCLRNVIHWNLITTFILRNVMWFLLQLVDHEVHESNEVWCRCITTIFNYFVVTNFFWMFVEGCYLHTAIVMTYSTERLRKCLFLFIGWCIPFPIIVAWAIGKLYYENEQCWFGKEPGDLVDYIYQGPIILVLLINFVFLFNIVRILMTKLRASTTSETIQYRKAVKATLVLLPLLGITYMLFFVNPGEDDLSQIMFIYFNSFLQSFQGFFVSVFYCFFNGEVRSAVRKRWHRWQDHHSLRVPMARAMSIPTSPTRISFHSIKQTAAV
T6 sequence (P24387 whole entry): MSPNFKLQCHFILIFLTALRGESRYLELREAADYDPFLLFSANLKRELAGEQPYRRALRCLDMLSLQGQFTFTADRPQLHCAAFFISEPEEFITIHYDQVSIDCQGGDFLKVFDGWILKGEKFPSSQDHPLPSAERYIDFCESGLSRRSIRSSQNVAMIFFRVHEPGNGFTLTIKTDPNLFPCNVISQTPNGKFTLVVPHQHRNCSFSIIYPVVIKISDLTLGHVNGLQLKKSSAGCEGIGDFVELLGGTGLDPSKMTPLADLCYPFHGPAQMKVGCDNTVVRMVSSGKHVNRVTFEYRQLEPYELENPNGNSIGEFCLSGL
The experiment can be described thus: activators of CRF receptor 2 with binding protein – uHTS hits, confirmation (AID 602473). The format is functional. To be noted: read-out: EC50_Mean.

Experiment [15] has as its target NACHT, LRR and PYD domains-containing protein 1 (Homo sapiens, UniProt Q9C000). The experiment can be described thus: NALP1 inhibitors in yeast, dose response, luminescent (AID 488860). Type of experiment: functional.
For experiment [16], the system named is Saccharomyces cerevisiae. The experiment can be described thus: NALP1 inhibitor project selectivity study, Caspase-1/ASC signal blockade IC50 in S. cerevisiae (AID 488863). Type of experiment: functional, organism-based.

T1 sequence (P09923 whole entry): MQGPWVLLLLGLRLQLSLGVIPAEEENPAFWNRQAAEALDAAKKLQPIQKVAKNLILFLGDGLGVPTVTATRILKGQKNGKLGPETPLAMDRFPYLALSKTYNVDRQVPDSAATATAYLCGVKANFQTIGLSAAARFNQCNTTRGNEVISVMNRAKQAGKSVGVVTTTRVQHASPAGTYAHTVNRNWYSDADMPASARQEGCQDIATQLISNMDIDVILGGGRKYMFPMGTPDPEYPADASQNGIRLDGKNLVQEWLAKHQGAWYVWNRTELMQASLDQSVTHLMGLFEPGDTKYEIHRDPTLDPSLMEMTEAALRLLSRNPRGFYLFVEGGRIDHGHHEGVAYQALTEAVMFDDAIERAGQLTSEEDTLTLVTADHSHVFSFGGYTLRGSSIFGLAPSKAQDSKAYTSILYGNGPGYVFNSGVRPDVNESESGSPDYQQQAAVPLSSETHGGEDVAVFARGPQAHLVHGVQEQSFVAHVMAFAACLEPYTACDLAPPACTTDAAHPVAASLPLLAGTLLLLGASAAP
T5 sequence (Q99705 whole entry): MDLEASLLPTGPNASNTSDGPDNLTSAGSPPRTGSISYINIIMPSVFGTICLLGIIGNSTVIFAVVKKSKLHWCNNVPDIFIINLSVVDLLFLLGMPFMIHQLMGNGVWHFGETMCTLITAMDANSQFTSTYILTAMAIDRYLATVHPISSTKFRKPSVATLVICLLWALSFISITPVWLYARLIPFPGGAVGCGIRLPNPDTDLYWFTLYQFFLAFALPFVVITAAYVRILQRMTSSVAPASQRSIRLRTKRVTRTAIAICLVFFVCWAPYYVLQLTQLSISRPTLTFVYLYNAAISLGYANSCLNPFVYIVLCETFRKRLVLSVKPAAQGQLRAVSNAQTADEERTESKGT
NACHT, LRR and PYD domains-containing protein 1, sequence (Q9C000 1-1212 limits assumed): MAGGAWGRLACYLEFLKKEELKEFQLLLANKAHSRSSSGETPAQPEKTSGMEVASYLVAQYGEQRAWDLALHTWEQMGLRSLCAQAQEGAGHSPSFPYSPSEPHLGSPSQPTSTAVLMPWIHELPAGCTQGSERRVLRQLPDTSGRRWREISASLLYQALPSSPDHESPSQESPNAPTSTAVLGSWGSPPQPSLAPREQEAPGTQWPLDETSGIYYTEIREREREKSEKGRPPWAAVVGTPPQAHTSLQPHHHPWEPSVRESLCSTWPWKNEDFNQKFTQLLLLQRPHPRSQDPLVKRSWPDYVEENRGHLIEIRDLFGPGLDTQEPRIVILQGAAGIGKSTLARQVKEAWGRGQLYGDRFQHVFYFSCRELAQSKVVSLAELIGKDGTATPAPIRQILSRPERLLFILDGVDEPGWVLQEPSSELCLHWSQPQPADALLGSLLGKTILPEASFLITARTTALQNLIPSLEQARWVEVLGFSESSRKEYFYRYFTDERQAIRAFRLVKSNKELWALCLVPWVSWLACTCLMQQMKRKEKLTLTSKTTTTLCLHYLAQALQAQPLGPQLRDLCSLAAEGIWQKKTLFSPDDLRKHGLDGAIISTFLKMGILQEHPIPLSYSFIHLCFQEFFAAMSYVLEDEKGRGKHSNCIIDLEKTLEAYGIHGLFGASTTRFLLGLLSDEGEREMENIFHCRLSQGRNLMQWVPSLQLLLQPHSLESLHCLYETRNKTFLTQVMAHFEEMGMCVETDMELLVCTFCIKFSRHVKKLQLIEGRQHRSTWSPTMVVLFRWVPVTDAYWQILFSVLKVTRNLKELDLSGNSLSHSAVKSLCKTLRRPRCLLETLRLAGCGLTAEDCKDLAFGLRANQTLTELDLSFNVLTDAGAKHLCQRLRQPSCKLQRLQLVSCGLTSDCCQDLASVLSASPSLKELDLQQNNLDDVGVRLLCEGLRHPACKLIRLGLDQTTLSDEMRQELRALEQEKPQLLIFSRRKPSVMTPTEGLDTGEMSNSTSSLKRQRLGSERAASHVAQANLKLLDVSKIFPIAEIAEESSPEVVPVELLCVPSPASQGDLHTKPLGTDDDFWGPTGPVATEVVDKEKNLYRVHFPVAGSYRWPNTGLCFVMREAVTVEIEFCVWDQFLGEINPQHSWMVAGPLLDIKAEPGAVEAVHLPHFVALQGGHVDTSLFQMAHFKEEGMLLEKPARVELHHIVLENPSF
NACHT, LRR and PYD domains-containing protein 1, sequence (Q9C000 1213-1473 limits assumed): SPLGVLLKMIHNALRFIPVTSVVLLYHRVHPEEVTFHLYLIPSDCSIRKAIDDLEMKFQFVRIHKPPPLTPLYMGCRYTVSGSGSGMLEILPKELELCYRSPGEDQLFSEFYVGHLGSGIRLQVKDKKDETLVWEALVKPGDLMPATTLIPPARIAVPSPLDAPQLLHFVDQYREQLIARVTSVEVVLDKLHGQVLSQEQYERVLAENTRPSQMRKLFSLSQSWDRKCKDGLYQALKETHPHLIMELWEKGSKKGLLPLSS
Intestinal-type alkaline phosphatase (Mus musculus, UniProt P24822), sequence (P24822 whole entry): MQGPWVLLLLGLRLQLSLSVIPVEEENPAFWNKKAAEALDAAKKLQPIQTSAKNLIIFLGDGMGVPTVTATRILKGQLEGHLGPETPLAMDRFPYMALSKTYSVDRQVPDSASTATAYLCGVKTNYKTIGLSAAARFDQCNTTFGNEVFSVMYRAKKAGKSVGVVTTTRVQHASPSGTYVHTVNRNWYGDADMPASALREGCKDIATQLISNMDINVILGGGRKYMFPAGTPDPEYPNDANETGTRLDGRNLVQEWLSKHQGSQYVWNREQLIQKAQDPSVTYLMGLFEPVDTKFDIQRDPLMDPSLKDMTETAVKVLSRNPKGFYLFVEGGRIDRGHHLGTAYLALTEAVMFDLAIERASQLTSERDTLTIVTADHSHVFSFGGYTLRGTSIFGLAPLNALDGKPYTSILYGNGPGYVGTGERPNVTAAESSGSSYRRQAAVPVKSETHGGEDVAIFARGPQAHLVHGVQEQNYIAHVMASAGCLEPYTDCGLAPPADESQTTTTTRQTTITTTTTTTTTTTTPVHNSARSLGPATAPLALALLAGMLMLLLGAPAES

The term IC50 denotes the point on the concentration scale where inhibition reaches its midpoint. On to `CC(C)C(=O)NC(=S)Nc1ccccc1C(=O)Nc1ccccc1`, for which the EC50 in [1] was 6.41 µM (active); in [2] it was 10.2 µM (active); in experiment [4], 7.62 µM (active); in experiment [5], > 100 µM (not active). Further, the IC50 in experiment [3] is 50 µM (active).
With `COCCn1nnnc1C(c1cc2ccc(C)cc2[nH]c1=O)N(Cc1ccco1)Cc1cccs1` (stereo unspecified), the IC50 in experiment [6] was > 50 µM (inactive).
As usually defined, the AC50 is the concentration at which the activity in the assay is half-maximal. As for `O=[N+]([O-])c1cc(S(=O)(=O)N2CCCCCC2)ccc1Cl`, the AC50 in experiment [7], in experiment [11] and in experiment [13] was > 52 µM (inactive) throughout. Further, the IC50 in experiment [8] was 5.8 µM (active); in experiment [9], 10.1 µM (inactive); in experiment [10], 8.01 µM (active); in [12], 2.88 µM (active).
With `COc1ccc(C2=C/C(=C/c3cccnc3)C(=O)O2)cc1OC`, the EC50 in experiment [14] is 3.91 µM (active). For the same compound, the IC50 in experiment [15] and in experiment [16] was > 100 µM (inactive) each time.
